Results on three compounds are retold here after BindingDB's records for doi:10.1016/j.bmcl.2005.02.011 (Florida Institute of Technology, 2005).

Broadly, the EC50 is the concentration at which the effect is half-maximal. Read a low EC50 as a more potent agent.

This experiment is described as follows: Effective concentration for DP2 mediated chemotaxis in eosinophils.
Consider `CCCCC[C@](C)(O)/C=C/[C@H]1C(=O)C[C@H](O)[C@@H]1C/C=C/CCCC(=O)O`, for which the EC50 was found to be 0.128 µM.

`CCCCC[C@H](O)/C=C/[C@H]1C(=O)C[C@H](O)[C@@H]1C/C=C/CCCC(=O)O` [(Z)-7-[(1R,2R,5S)-5-Hydroxy-2-((E)-(S)-3-hydroxy-oct-1-enyl)-3-oxo-cyclopentyl]-hept-5-enoic acid]: the 50% effective concentration (EC50) was found to be 0.01 µM.

As to `CCCCC[C@@](C)(O)/C=C/[C@H]1C(=O)C[C@H](O)[C@@H]1C/C=C/CCCC(=O)O` [(Z)-7-[(1R,4S,5R)-5-Hydroxy-2-((R)-3-hydroxy-3-methyl-oct-1-enyl)-3-oxo-cyclopentyl]-hept-5-enoic acid], a half-maximal response (EC50) required 0.0017 µM.
